Measurements: patent publication US20220357332A1, “TRIPHENYLENE DERIVATIVES FOR USE IN IMAGING BIOLOGICAL TISSUE OR FLUID” (CHROMATWIST LIMITED, priority 2019, published 2022)

Key:
[1] = Luminescent data (absorption, emission, quantum yield, brightness) in solvents; type: physicochemical
Excerpt: Referring now to Table 1, there is shown luminescent data for Compounds 1 to 6.

[2] = Luminescence data for pairs of compounds absorbing at the same wavelength and emitting at different wavelengths; type: physicochemical; conditions: for ε × 10^3 (M^−1 cm^−1) at 355 nm / ε × 10^3 (M^−1 cm^−1) at 405 nm / ε × 10^3 (M^−1 cm^−1) at λMax / Absorption λMax / Emission λMax: solvent not given
Excerpt: Referring now to Tables 2 to 4, there is provided luminescence data for pairs of compounds which are capable of absorbing at the same wavelength and emitting at different wavelengths.

Huh-7 cells = conditions: 1 hr, Huh-7 cells labelled with CMFDA
Excerpt: To test the relative toxicity of tetrahydrofuran (THF) for liver cells, Huh-7 cells (hepatoma cell line used for a model of hepatocytes) were labelled with CMFDA (CellTracker Green, in DMSO, Invitrogen) and then treated with half log concentrations of THF (0.1%, 0.3%, 1%, 3%) for 1 hr. Cells were then imaged live using a Zeiss primovert fluorescence microscope.

[3] = Solubility (statements in words); type: physicochemical; conditions: water
[4] = Acetonitrile (ϵr 37.5, viscosity 0.38 cP)
[5] = Ethyl acetate (ϵr 6.0, viscosity 0.45 cP)
[6] = Octan-1-ol (ϵr 10.3, viscosity 7.36 cP)

| SMILES | Absorption λmax [1, 4] | Emission λmax [1, 4] | pSS [1, 4] | Φ [1, 4] | Absorption λmax [1, 5] | Brightness [1, 5] | Emission λmax [1, 5] | pSS [1, 5] | Φ [1, 5] | Absorption λmax [1, 6] | Brightness [1, 6] | Emission λmax [1, 6] | pSS [1, 6] | Φ [1, 6] | Brightness [1, 4] | QY [2] | pSS (cm^−1) [2] | pSS (nm) [2] | Absorption % Abs at 355 nm [2] | Absorption % Abs at 405 nm [2] | other results |
| --- | --- | --- | --- | --- | --- | --- | --- | --- | --- | --- | --- | --- | --- | --- | --- | --- | --- | --- | --- | --- | --- |
| CCCCCOc1cc2c3cc(OCCCCC)c(OCCCCC)cc3c3c(cc(OCCCCC)c4oc(-c5ccc6cc7ccccc7cc6c5)nc43)c2cc1OCCCCC [Compound 5, 8-(anthracen-2-yl)-2,3,6,11,12-pentakis(pentyloxy)triphenyleno[1,2-d]oxazole] | 270 nm | 592 nm | 20200 cm^−1 | 0.21 ± 0.02 | 272 nm | 53 ± 5 M⁻¹ cm⁻¹ | 536 nm | 18100 cm^−1 | 0.51 ± 0.04 | 270 nm | 50 ± 5 M⁻¹ cm⁻¹ | 526 nm | 18000 cm^−1 | 0.56 ± 0.05 |  |  |  |  |  |  |  |
| CCCCCOc1cc2c3cc(OCCCCC)c(OCCCCC)cc3c3c(cc(OCCCCC)c4oc(-c5c6ccccc6cc6ccccc56)nc43)c2cc1OCCCCC [Compound 6, 8-(anthracen-9-yl)-2,3,6,11,12-pentakis(pentyloxy)triphenyleno[1,2-d]oxazole] | 253 nm | 630 nm | 23650 cm^−1 |  | 253 nm |  | 594 nm | 22700 cm^−1 |  | 255 nm |  | 384 nm | 13200 cm^−1 |  |  |  |  |  |  |  |  |
| CCCCCOc1cc2c3cc(OCCCCC)c(OCCCCC)cc3c3c(cc(OCCCCC)c4oc(-c5ccccc5)nc43)c2cc1OCCCCC [Compound 2, 2,3,6,11,12-pentakis(pentyloxy)-8-phenyltriphenyleno[1,2-d]oxazole] | 270 nm | 492 nm | 16700 cm^−1 | 0.46 ± 0.04 | 270 nm | 51 ± 5 M⁻¹ cm⁻¹ | 467 nm | 15600 cm^−1 | 0.46 ± 0.04 | 271 nm | 64 ± 6 M⁻¹ cm⁻¹ | 473 nm | 15800 cm^−1 | 0.61 ± 0.06 | 38 ± 4 M⁻¹ cm⁻¹ |  |  |  |  |  |  |
| CCCCCOc1cc2c3cc(OCCCCC)c(OCCCCC)cc3c3c(cc(OCCCCC)c4oc(-c5ccc(C#N)cc5)nc43)c2cc1OCCCCC [Compound 12, 4-(2,3,6,11,12-pentakis(pentyloxy)triphenyleno[1,2-d]oxazol-8-yl)benzonitrile] |  |  |  |  |  |  |  |  |  |  |  |  |  |  |  | 0.32 | 18800 cm^−1 | 286 nm | 12% | 14% | ε × 10^3 (M^−1 cm^−1) at 355 nm [2]: 13 × 10^3 M^−1 cm^−1; ε × 10^3 (M^−1 cm^−1) at 405 nm [2]: 14 × 10^3 M^−1 cm^−1; ε × 10^3 (M^−1 cm^−1) at λMax [2]: 103 × 10^3 M^−1 cm^−1; Absorption λMax [2]: 272 nm; Emission λMax [2]: 558 nm |
| CCCCCOc1cc2c3cc(OCCCCC)c(OCCCCC)cc3c3c(cc(OCCCCC)c4oc(CCCC)nc43)c2cc1OCCCCC [Compound 1, 8-butyl-2,3,6,11,12-pentakis(pentyloxy)triphenyleno[1,2-d]oxazole] | 281 nm | 367 nm | 8300 cm^−1 | 0.20 ± 0.02 | 281 nm | 29 ± 5 M⁻¹ cm⁻¹ | 367 nm | 8300 cm^−1 | 0.18 ± 0.01 | 281 nm | 36 ± 7 M⁻¹ cm⁻¹ | 367 nm | 8300 cm^−1 | 0.30 ± 0.03 | 12 ± 2 M⁻¹ cm⁻¹ |  |  |  |  |  |  |
| C1CCOC1 [THF, tetrahydrofuran] |  |  |  |  |  |  |  |  |  |  |  |  |  |  |  |  |  |  |  |  | Toxicity for liver cells (cell culture compared to the reference) (Huh-7 cells; 0.1% and 0.3% THF): no differences in the cell culture compared to the reference; Toxicity for liver cells (dead cells) (Huh-7 cells; 1% and 3% THF): increasing number of dead cells |
| CCCCCOc1cc2c3cc(OCCCCC)c(OCCCCC)cc3c3c(cc(OCCCCC)c4oc(-c5cccc6ccccc56)nc43)c2cc1OCCCCC [Compound 4, 8-(naphthalen-1-yl)-2,3,6,11,12-pentakis(pentyloxy)triphenyleno[1,2-d]oxazole] | 275 nm | 543 nm | 18000 cm^−1 | 0.36 ± 0.04 | 275 nm | 56 ± 5 M⁻¹ cm⁻¹ | 510 nm | 16800 cm^−1 | 0.48 ± 0.04 | 275 nm | 67 ± 7 M⁻¹ cm⁻¹ | 515 nm | 17000 cm^−1 | 0.55 ± 0.05 | 30 ± 3 M⁻¹ cm⁻¹ |  |  |  |  |  |  |
| CCCCCOc1cc2c3cc(OCCCCC)c(OCCCCC)cc3c3c(cc(OCCCCC)c4oc(-c5ccc(OC)cc5)nc43)c2cc1OCCCCC [Compound 45, 8-(4-methoxyphenyl)-2,3,6,11,12-pentakis(pentyloxy)triphenyleno[1,2-d]oxazole] |  |  |  |  |  |  |  |  |  |  |  |  |  |  |  | 0.40 | 14000 cm^−1 | 174 nm | 22% | 0% | ε × 10^3 (M^−1 cm^−1) at 355 nm [2]: 21 × 10^3 M^−1 cm^−1; ε × 10^3 (M^−1 cm^−1) at 405 nm [2]: 0 × 10^3 M^−1 cm^−1; ε × 10^3 (M^−1 cm^−1) at λMax [2]: 97 × 10^3 M^−1 cm^−1; Absorption λMax [2]: 270 nm; Emission λMax [2]: 444 nm |
| CCCCCOc1cc2c(cc1OCCOCCOCCOC)c1cc(OCCOCCOCCOC)c(OCCOCCOCCOC)cc1c1cc(OCCOCCOCCOC)c3oc(C)nc3c21 [Compound 32, 2,3,6,12-tetrakis(2-(2-(2-methoxyethoxy)ethoxy)ethoxy)-8-methyl-11-(pentyloxy)triphenyleno[1,2-d]oxazole] |  |  |  |  |  |  |  |  |  |  |  |  |  |  |  |  |  |  |  |  | Water solubility [3]: water soluble |
| CCCCCOc1cc2c3cc(OCCCCC)c(OCCCCC)cc3c3c(cc(OCCCCC)c4oc(-c5ccc(N(C)C)cc5)nc43)c2cc1OCCCCC [Compound 22, N,N-dimethyl-4-(2,3,6,11,12-pentakis(pentyloxy)triphenyleno[1,2-d]oxazol-8-yl)aniline] |  |  |  |  |  |  |  |  |  |  |  |  |  |  |  | 0.70 | 13150 cm^−1 | 150 nm | 54% | 2% | ε × 10^3 (M^−1 cm^−1) at 355 nm [2]: 39 × 10^3 M^−1 cm^−1; ε × 10^3 (M^−1 cm^−1) at 405 nm [2]: 1.5 × 10^3 M^−1 cm^−1; ε × 10^3 (M^−1 cm^−1) at λMax [2]: 72 × 10^3 M^−1 cm^−1; Absorption λMax [2]: 271 nm; Emission λMax [2]: 421 nm |
